Measured values taken from ChEMBL document CHEMBL3045011, “Synthesis and Herbicidal Activities of 2-(5-Isoxazolyloxy)-acetamide Derivatives” (J Pestic Sci, 1998).
Active and inactive are the calls of the source. The rule behind the calls is not given here.

Key:
Type in all cases: functional, organism-based
[1] = test system: Amaranthus viridis; assay: Herbicidal activity against Amaranthus viridis assessed as seedling death under green house at 0.5 kg/ha at 25 degC measured after 4 weeks
[2] = test system: Echinochloa crus-galli; assay: Herbicidal activity against Echinochloa crus-galli (barnyard grass) assessed as seedling death under green house at 0.5 kg/ha at 25 degC measured after 4 weeks
[3] = test system: Digitaria ciliaris; assay: Herbicidal activity against Digitaria ciliaris assessed as seedling death under green house at 0.5 kg/ha at 25 degC measured after 4 weeks
[4] = test system: Amaranthus viridis; assay: Herbicidal activity against Amaranthus viridis assessed as seedling death under green house at 1 kg/ha at 25 degC measured after 4 weeks
[5] = test system: Digitaria ciliaris; assay: Herbicidal activity against Digitaria ciliaris assessed as seedling death under green house at 1 kg/ha at 25 degC measured after 4 weeks
[6] = test system: Echinochloa crus-galli; assay: Herbicidal activity against Echinochloa crus-galli (barnyard grass) assessed as seedling death under green house at 1 kg/ha at 25 degC measured after 4 weeks
[7] = test system: Persicaria lapathifolia; assay: Herbicidal activity against Persicaria lapathifolia assessed as seedling death under green house at 0.5 kg/ha at 25 degC measured after 4 weeks

Structure (SMILES) | Activity [1] | Activity [2] | Activity [3] | Activity [4] | Activity [5] | Activity [6] | Activity [7]
Cc1c(C(F)(F)F)noc1OCC(=O)N(C)c1ccccc1F | Active | Active | Active | Active | Active | Active | –
Cc1cccc(N(C)C(=O)COc2onc(C(F)(F)F)c2C)c1 | Active | Active | Active | Active | Active | Active | –
Cc1ccc(N(C)C(=O)COc2onc(C(F)(F)F)c2C)cc1 | – | Active | Active | Active | Active | Active | –
Cc1c(C(F)(F)F)noc1OCC(=O)N(C)CC(C)C | – | – | Active | – | Active | Active | –
CCCCN(C)C(=O)COc1onc(C(F)(F)F)c1C | – | – | – | – | – | – | inactive
CCc1cccc(N(C)C(=O)COc2onc(C(F)(F)F)c2C)c1 | Active | Active | Active | Active | Active | Active | –
Cc1ccccc1N(C)C(=O)COc1onc(C(F)(F)F)c1C | Active | Active | Active | Active | Active | Active | –
Cc1cccc(N(C)C(=O)COc2onc(C(F)(F)F)c2C)c1C | – | Active | Active | – | Active | Active | inactive
CCC(C)N(C)C(=O)COc1onc(C(F)(F)F)c1C (configuration not stated) | – | Active | Active | – | Active | – | –
Cc1c(Cl)cccc1N(C)C(=O)COc1onc(C(F)(F)F)c1C | – | Active | Active | – | Active | Active | –
CCCN(C(=O)COc1onc(C(F)(F)F)c1C)c1ccccc1 | – | Active | – | – | Active | Active | –
COc1ccc(N(C)C(=O)COc2onc(C(F)(F)F)c2C)cc1 | Active | Active | Active | Active | Active | Active | inactive
Cc1c(C(F)(F)F)noc1OCC(=O)N(C)c1cccc([N+](=O)[O-])c1 | inactive | – | – | – | Active | – | inactive
Cc1c(C(F)(F)F)noc1OCC(=O)N(c1ccccc1)C(C)C | – | Active | Active | – | Active | Active | –
CCN(C(=O)COc1onc(C(F)(F)F)c1C)c1ccccc1 | – | Active | Active | – | Active | Active | –
COc1cccc(N(C)C(=O)COc2onc(C(F)(F)F)c2C)c1 | – | Active | Active | Active | Active | Active | –
Cc1c(C(F)(F)F)noc1OCC(=O)N(C)c1cccc(Cl)c1 | – | Active | Active | – | Active | Active | –
Cc1c(C(F)(F)F)noc1OCC(=O)N(C)c1ccc(F)cc1 | – | Active | Active | – | Active | Active | –
COc1ccccc1N(C)C(=O)COc1onc(C(F)(F)F)c1C | – | Active | Active | – | Active | Active | –
Cc1c(C(F)(F)F)noc1OCC(=O)N(C)c1cccc(Br)c1 | – | Active | Active | – | Active | Active | –
